Paper PMC9820592, “Novel Chiral Ru(II) Complexes as Potential c-myc G-quadruplex DNA Stabilizers Inducing DNA Damage to Suppress Triple-Negative Breast Cancer Progression” (International Journal of Molecular Sciences, 2022)

Legend:
MDA-MB-231 cells [1] = test: Immunofluorescence of paxillin and F-actin; type: cell-based, human; settings: 24 h
Experimental: (§1) MDA-MB-231 cells were inoculated in a 6-well plate containing a cover glass. On the second day, the cells were treated with different concentrations of the complex (0, 5, and 10 μM) for 24 h. The cells were fixed with 4% paraformaldehyde for 20 min, and then blocked with 5% BSA for 0.5 h at room temperature. The 1:500 anti-γH2AX antibody was diluted with 5% FBS and incubated for 1 h. The cells were incubated with lgG (H + L) for 0.5 h and treated with DAPI for 5 min. The cover glass was then transferred to a specified microscope slide and photographed with laser confocal microscopy. The antibodies used in immunofluorescence to determine invasion and metastasis were anti-paxillin antibody (ab32115), Fluor 488-conjugated IgG (H + L) (Proteintech), and rhodamine phalloidin (Amanita phalloidin, cytoskeleton).

MCF-7 cells = test: MTT assay, MCF-7 cells; type: cell-based, human; settings: 72 h, read-out: Inhibitory Effect (IC50/μM) MCF-7
Experimental: (§2) Liver cancer HepG2 cells, lung cancer A549 cells, breast cancer MCF-7 and MDA-MB-231 cells, human nasopharyngeal carcinoma CNE-1 cells, and human immortalized keratinocyte HaCaT cells were seeded in 96-well plates (5 × 10^3 cells per well) and cultured at 37 °C and 5% CO2 for 24 h. Cells were treated with different concentrations of the complexes (0, 1.5625, 3.125, 6.25, 12.5, 25, 50, and 100 µM) for 72 h. After adding 20 µL MTT (5 mg/mL) solution to each well, the cells were incubated for 4 h, and then 150 µL DMSO was added to each well. The optical density of each well was detected by a microplate reader at a wavelength of 570 nm. The cell survival rate (%) = A(experimental group)/A(control group) × 100%, and the IC50 value was analyzed and calculated based on the survival rate.

γ-H2AX = γ-H2AX immunofluorescence; type: cell-based, human
Experimental: as §1

MDA-MB-231 cells [2] = test: Zebrafish xenograft breast cancer model; type: in vivo; settings: 2.5, 5, and 10 μM, 72 h
Experimental: The zebrafish model of transplanted breast cancer was constructed in accordance with the methods in the literature. Juvenile 48 h old breast cancer model zebrafish were placed in 48-well plates (n = 10), and 0.2 mL aquaculture water without or with Δ−3 (0, 2.5, 5, and 10 μM) was added for culture. Images were captured every 24 h using a fluorescence microscope to study the inhibitory effect of Δ−3 on zebrafish with breast cancer. In addition, the mean number of sprout and mean length of sprout in subintestinal vessels (SIVs) were analyzed by ImageProPlus software. The ethical protocols for the in vivo research on zebrafish complied with relevant laws.

MDA-MB-231 cells [3] = test: EdU proliferation assay; type: cell-based, human; settings: control 50.2%
Experimental: The inhibitory effect of the chiral DPPZ-based Ru(II) complexes (Λ/Δ−1−3) was assessed against different human tumor cancer cells, such as breast cancer MCF-7, MDA-MB-231, lung cancer A549, liver carcinoma HepG2, nasopharyngeal carcinoma CNE-1, and human normal keratinocyte HaCaT cells, by MTT assay. […] Moreover, the inhibition of MDA-MB-231 cell proliferation by Δ−3 was detected by using an EdU (5-ethynyl-2′-deoxyuridine) staining kit, and EdU was incorporated into newly synthesized DNA in the sample cells. The red fluorescent azide is small enough to diffuse freely through native tissues and DNA, and it covalently cross-links to the EdU in a “click” chemistry reaction.

c-myc protein = c-myc protein expression in MDA-MB-231 cells; type: cell-based, human; settings: 40 μΜ, 72 h
HepG2 cells = test: MTT assay, HepG2 cells; type: cell-based, human; settings: 72 h, read-out: Inhibitory Effect (IC50/μM) HepG2
Experimental: as §2

MDA-MB-231 cells [4] = test: MTT assay, MDA-MB-231 cells; type: cell-based, human; settings: 72 h, read-out: Inhibitory Effect (IC50/μM) MDA-MB-231
Experimental: as §2

MDA-MB-231 cells [5] = test: FITC-gelatine invasion assay; type: cell-based, human; settings: 24 h
Experimental: An appropriate amount of FITC–gelatine glue was pipetted to cover the inner ring of the confocal cuvette, added to 0.5% glutaraldehyde for at least 30 min after solidification, and activated with 5 mg·mL^−1 sodium borohydride. Subsequently, 2 mL of cell suspension (5 × 10^4 cells) treated with different drug concentrations (0, 2.5, 5, and 10 µM) was added to each dish. The mixture was incubated at 37 °C for 24 h, and then the cells in each dish were fixed with 4% paraformaldehyde, incubated with phalloidin staining solution for 30 min and DAPI for 5 min, and imaged with a fluorescence microscope in the dark.

c-myc G-quadruplex DNA = test: PCR-stop assay; type: biochemical, human; settings: Taq polymerase
Experimental: In this study, c-myc G4 DNA and its reverse complementary sequence c-myc rev were heated to 95 °C for 5 min, allowed to cool to room temperature, and incubated at 4 °C overnight. The system was supplemented with dNTPs and Taq polymerase for PCR amplification; heated at 95 °C for 3 min, 94 °C for 30 s, and 58 °C for 30 s, with an extension at 72 °C for 30 s (30 cycles); and analyzed by 15% nondenatured polyacrylamide gel electrophoresis and silver staining.

MDA-MB-231 cells [6] = test: Flow cytometry, cell cycle distribution; type: cell-based, human; settings: 72 h; for G0/G1: control 63.16%
Experimental: MDA-MB-231 cells were treated with different concentrations of the complexes (0, 10, 20, and 40 μM) for 72 h, then collected and stained with an Annexin V-FITC/PI Apoptosis Detection Kit I (BD, 556547). The MDA-MB-231 cells were fixed with 70% ethanol at 4 °C for 30 min, and then collected and stained with PI/RNase Staining Buffer (BD, 550825). The cells were analyzed by flow cytometry (Beckman, CytoFLEX). All experiments were repeated three times.

Δ-[Ru(bpy)2(3-NBEDPPZ)](ClO4)2 [Δ−3]
focal adhesions (paxillin) and stress fibers (F-actin) (MDA-MB-231 cells [1]): the amount of paxillin decreased
IC50 (MCF-7 cells): 90.6 ± 6.34 µM
γ-H2AX production (γ-H2AX; 5 μM): Green fluorescence was observed
γ-H2AX production (γ-H2AX; 10 μM): the DNA damage was serious
number of MDA-MB-231 cells in zebrafish (MDA-MB-231 cells [2]): significantly lower than that of the control
proliferation rate (EdU) (MDA-MB-231 cells [3]; 10 μM): 34.9%
proliferation rate (EdU) (MDA-MB-231 cells [3]; 20 μM): 22.0%
proliferation rate (EdU) (MDA-MB-231 cells [3]; 40 μM): 5.1%
expression of the c-myc protein (c-myc protein): effectively downregulated
IC50 (HepG2 cells): 37.8 ± 0.6 µM
IC50 (MDA-MB-231 cells [4]): 25.5 µM
degraded areas (black holes) on FITC-gelatine (MDA-MB-231 cells [5]; 10 μM): did not result in a black hole
number of degraded areas on FITC-gelatine (MDA-MB-231 cells [5]; 2.5 and 5 μM, control six degraded areas): markedly reduced
minimum concentration necessary for effective inhibition (PCR products) (c-myc G-quadruplex DNA): 2.5 µM
G2/M (MDA-MB-231 cells [6]; 10 μM): 4.07%
S (MDA-MB-231 cells [6]; 10 μM): 30.96%
SubG1 (MDA-MB-231 cells [6]; 10 μM): 5.40%
G0/G1 (MDA-MB-231 cells [6]; 10 μM): 64.97%
G2/M (MDA-MB-231 cells [6]; 20 μM): 3.13%
S (MDA-MB-231 cells [6]; 20 μM): 27.26%
SubG1 (MDA-MB-231 cells [6]; 20 μM): 4.45%
G0/G1 (MDA-MB-231 cells [6]; 20 μM): 69.61%
G2/M (MDA-MB-231 cells [6]; 40 μM): 2.93%
S (MDA-MB-231 cells [6]; 40 μM): 29.70%
SubG1 (MDA-MB-231 cells [6]; 40 μM): 14.97%
G0/G1 (MDA-MB-231 cells [6]; 40 μM): 67.37%
